Assay results: publication PMC8455565 (Scientific Reports, 2021)

Assays:
STAT5 (Y694) = assay: IL-2-stimulated STAT5 phosphorylation (JAK3 signaling) in T and NK cells; assay type: cell-based, human; conditions: 30 μM
Description: The analysis measured 94 intracellular signaling nodes (81 phosphorylation sites, 10 total protein levels and 3 methylation/acetylation sites) in stimulated immune cells, including B cells (IgM plus CD40L), CD4 + and CD8 + T cells (IL-2; CD3 plus CD28), monocytes (M-CSF), NK cells (IL-2), and granulocytes (LPS).

[1] = Phase I pharmacokinetics in healthy volunteers; assay type: in vivo; conditions: male, human, plasma, oral; after multiple doses, all dose levels (BID)
Description: PK/PD data from 24 subjects who had received the drug BID among the 90 total subjects who participated in the MAD study were analyzed. Blood was collected on day 1 before drug administration and 1 h, 2 h, 4 h, and 12 h after drug administration. Blood samples were taken 3 days and 2 h after drug administration. Additional blood samples were taken on day 6 (5, 20, and 60 mg/kg), day 15 (40 mg/kg), day 17, and day 21 for PK/PD analysis.
After drug administration, whole blood was collected from CIA model rats and human subjects at the indicated times. Plasma was obtained by centrifugation at 12,000 rpm for 2 min and stored at − 20 °C until analysis.

TXK = target: T1, TXK (Homo sapiens, UniProt P42681); assay: Kinase biochemical assay (FRET), TXK; conditions: read-out: inhibitory activity on TXK
T1 sequence (P42681 1-527): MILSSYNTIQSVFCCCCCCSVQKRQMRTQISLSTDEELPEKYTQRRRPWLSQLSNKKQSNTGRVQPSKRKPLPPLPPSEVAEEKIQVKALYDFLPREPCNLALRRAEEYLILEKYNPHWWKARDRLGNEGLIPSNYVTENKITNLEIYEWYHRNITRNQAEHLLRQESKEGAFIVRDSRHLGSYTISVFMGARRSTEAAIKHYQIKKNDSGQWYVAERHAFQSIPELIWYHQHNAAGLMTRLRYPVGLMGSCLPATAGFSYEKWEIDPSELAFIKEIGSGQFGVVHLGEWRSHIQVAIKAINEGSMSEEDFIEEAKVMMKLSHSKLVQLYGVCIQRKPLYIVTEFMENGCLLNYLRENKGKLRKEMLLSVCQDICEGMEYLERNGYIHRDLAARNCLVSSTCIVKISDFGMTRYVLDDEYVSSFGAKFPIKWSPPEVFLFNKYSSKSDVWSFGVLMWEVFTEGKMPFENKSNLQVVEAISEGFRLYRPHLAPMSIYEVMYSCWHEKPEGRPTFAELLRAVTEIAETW

BTK [2] = target: T2, BTK (Homo sapiens, UniProt Q06187); assay: BTK occupancy in B cell line (Ramos cells, biotinylated probe, AlphaScreen); assay type: cell-based
T2 sequence (Q06187 whole entry): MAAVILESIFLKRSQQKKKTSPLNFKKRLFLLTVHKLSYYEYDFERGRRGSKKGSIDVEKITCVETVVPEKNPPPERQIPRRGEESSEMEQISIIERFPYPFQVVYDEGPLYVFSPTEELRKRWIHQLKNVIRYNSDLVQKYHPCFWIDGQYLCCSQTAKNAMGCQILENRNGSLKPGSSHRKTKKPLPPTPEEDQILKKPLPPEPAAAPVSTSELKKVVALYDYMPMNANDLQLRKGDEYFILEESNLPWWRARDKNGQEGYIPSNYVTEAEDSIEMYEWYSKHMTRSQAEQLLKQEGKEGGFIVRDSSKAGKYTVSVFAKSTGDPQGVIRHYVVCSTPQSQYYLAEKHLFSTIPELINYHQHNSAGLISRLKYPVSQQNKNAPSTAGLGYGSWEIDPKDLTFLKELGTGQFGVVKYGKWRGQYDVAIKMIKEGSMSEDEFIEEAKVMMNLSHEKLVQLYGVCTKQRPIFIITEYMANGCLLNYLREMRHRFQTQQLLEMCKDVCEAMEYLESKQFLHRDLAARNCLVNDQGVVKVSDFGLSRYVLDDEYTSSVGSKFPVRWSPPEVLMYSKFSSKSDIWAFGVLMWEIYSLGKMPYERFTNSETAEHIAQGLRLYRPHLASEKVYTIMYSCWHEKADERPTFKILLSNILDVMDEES
Description: A total of 5 × 10^5 Ramos cells/well were plated in 96-well PDL-coated plates in DMEM with high glucose (GIBCO) supplemented with 10% FBS. Serial dilutions of LY3439943 in DMSO (final DMSO concentration, 0.4%) were incubated with the cells for 1 h at 37 °C. An equal volume of a covalent biotinylated BTK probe was added (final concentration, 167 nM), and the cells were incubated for another 1 h at 37 °C. The cells were lysed, and the amount of BTK was determined using the AlphaScreen IgG Detection Kit (Perkin Elmer 6760617R) and an anti-BTK antibody (Thermo Scientific Cat# MA5-14929) following the manufacturer’s instructions. The signal was measured at 615 nm with an Envision plate reader (Perkin Elmer).

BTK [3] = target: T2, BTK; assay: BTK kinase activity, Z'-LYTE FRET biochemical assay; design: purchased Thermo Fisher Scientific PV3363; conditions: mean ± S.D; read-out: IC50, hBTK biochemical assay
Description: The kinase activity of BTK was measured using the Z′-LYTE assay based on fluorescence resonance energy transfer (FRET). […] Briefly, BTK, peptide, ATP and inhibitor mixtures were incubated for 1 h at room temperature. Then, Development Reagent A was added to each well, and incubation proceeded for another 1 h. […] The data were analyzed by GraphPad Prism 6 (GraphPad Software, CA, USA) to determine the IC50 values.

C=CC(=O)Nc1cccc(Oc2nc(Nc3ccc(N4CCN(C)CC4)cc3)nc3ccoc23)c1 [Poseltinib]
IL-2-stimulated phosphorylation of STAT5 (Y694) (STAT5 (Y694); CD4 + T cells): inhibited | IL-2-stimulated phosphorylation of STAT5 (Y694) (STAT5 (Y694); CD8 + T cells): inhibited | IL-2-stimulated phosphorylation of STAT5 (Y694) (STAT5 (Y694); NK cells): inhibited | Tmax [1]: 1 to 2 h | IC50 (TXK): < 10 nM | IC50 (BTK [2]): 5 nM | IC50 (BTK [3]): 4 nM
